For one assay, the target named is human TLR8 (Homo sapiens (Human), UniProt Q9NR97). In words: TLR8 inhibition reporter assay (HEK-Blue SEAP).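 Further: SEAP driven by IFN-β minimal promoter carrying NF-κB and AP-1 sites, compounds dosed 0.05 nM to 50 µM for 22 h, inhibition scaled between agonist-plus-DMSO and reference-inhibitor wells.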 To be noted: read-out: TLR8 IC50; HEK-Blue cells overexpressing human TLR8, SEAP reporter, R848 15.9 μM. In general terms: In a reporter assay the amount or activity of a reporter protein is the signal.
Sequence of human TLR8 (Q9NR97 27-1041): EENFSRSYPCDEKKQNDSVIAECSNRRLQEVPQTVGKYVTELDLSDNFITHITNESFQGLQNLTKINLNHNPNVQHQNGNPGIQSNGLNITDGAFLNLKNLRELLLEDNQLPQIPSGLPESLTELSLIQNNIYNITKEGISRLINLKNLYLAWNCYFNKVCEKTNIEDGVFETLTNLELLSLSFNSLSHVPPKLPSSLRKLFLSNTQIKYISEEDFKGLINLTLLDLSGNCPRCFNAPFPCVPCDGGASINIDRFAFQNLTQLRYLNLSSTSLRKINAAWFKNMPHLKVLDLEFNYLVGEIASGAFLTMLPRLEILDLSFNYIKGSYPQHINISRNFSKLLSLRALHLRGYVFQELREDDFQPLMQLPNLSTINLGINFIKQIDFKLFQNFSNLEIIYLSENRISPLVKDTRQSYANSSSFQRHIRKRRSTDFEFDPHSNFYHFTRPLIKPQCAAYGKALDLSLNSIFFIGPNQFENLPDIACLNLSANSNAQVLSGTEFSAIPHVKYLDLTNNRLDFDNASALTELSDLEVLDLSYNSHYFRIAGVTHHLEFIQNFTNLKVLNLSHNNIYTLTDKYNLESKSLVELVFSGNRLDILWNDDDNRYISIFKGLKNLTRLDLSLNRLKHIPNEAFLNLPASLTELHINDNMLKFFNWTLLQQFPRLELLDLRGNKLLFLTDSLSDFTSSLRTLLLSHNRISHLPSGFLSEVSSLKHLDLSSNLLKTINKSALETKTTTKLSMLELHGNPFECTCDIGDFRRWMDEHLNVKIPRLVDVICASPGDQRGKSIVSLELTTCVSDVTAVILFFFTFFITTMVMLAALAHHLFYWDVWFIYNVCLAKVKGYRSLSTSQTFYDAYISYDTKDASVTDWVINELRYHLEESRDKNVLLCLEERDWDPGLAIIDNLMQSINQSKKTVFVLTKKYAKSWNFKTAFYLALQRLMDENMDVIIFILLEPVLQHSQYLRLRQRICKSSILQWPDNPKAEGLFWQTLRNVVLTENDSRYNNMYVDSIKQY
The next assay concerns the target human TLR9 (Homo sapiens (Human), UniProt Q9NR96). In words: TLR9 inhibition reporter assay (HEK-Blue SEAP).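 Further: SEAP driven by an IFN-β minimal promoter with NF-κB and AP-1 sites, read after 22 h, compounds dosed 0.05 nM–50 µM, inhibition scaled between agonist plus DMSO and reference-inhibitor wells.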 To be noted: read-out: TLR9 IC50; HEK-Blue cells overexpressing human TLR9, SEAP reporter, ODN2006 5 nM.
The target in another assay is human TLR7 (Homo sapiens (Human), UniProt Q9NYK1). In words: TLR7 inhibition reporter assay (HEK-Blue SEAP). In kind it is cell-based. The conditions noted are these: HEK-Blue cells overexpressing human TLR7, SEAP reporter, gardiquimod 7.5 μM.
Sequence of human TLR7 (Q9NYK1 27-1049): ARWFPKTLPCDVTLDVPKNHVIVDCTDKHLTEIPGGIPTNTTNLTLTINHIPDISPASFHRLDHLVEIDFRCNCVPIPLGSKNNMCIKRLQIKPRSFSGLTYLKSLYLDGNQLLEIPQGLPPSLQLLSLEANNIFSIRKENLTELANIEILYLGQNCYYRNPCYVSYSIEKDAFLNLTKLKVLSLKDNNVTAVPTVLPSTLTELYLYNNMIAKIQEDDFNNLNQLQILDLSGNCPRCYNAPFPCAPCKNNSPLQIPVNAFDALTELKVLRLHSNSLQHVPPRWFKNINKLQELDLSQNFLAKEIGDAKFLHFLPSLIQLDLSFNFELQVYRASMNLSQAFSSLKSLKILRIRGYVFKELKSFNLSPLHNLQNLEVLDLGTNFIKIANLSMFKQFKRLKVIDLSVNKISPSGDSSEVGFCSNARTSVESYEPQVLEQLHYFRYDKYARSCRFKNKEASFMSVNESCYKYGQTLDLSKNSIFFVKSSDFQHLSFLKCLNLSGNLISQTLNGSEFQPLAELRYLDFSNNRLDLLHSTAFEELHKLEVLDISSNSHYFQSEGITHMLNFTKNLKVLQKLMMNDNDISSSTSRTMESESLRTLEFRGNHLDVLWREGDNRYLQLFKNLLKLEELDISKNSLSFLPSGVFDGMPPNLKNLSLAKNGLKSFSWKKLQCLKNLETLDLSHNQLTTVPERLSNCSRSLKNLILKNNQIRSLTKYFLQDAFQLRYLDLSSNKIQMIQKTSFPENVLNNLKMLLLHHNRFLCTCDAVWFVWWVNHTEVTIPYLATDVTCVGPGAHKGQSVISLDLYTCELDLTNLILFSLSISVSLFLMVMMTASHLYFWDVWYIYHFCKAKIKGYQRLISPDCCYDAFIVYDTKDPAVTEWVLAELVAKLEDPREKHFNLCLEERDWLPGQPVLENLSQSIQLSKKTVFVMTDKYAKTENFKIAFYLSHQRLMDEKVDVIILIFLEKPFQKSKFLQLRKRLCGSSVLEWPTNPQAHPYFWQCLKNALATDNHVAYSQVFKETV

SMILES strings stand for the structures.

For orientation: IC50 means the concentration needed to halve the response being measured.

Sequence of human TLR9 (Q9NR96 26-1032): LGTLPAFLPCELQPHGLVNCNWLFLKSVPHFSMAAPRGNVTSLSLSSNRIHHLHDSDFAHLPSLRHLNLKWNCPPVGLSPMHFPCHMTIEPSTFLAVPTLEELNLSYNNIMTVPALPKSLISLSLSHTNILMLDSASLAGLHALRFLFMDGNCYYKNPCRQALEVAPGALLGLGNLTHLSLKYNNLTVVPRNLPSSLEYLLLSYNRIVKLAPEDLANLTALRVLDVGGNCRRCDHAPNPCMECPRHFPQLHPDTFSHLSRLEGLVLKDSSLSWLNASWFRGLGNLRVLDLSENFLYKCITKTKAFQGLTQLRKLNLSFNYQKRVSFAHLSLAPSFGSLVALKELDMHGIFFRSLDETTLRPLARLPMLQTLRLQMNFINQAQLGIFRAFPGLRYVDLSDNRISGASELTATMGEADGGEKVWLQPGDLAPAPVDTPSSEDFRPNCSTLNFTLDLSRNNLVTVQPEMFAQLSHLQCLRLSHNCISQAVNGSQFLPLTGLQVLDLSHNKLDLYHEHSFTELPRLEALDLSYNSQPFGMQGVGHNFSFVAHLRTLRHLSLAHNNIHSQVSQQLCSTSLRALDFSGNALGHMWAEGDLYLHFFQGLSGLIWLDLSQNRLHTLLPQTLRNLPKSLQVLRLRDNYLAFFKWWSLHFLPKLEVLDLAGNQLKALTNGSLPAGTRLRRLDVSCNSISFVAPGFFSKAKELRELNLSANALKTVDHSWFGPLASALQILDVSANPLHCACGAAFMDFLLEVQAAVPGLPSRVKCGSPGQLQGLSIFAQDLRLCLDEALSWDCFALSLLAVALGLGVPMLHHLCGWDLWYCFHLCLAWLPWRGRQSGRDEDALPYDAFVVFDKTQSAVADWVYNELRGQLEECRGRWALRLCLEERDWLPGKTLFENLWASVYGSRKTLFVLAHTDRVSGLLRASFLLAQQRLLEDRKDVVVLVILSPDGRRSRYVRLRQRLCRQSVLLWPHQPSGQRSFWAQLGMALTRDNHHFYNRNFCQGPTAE
Procedure for human TLR8: HEK-Blue™-cells (Invivogen) overexpressing human TLR7, TLR8 or TLR9 receptors were used for screening inhibitors of these receptors using an inducible SEAP (secreted embryonic alkaline phosphatase) reporter gene under the control of the IFN-β minimal promoter fused to five NF-κB and AP-1-binding sites. Briefly, cells are seeded into Greiner 384 well plates (15000 cells per well for TLR7, 20,000 for TLR8 and 25,000 for TLR9) and then treated with test compounds in DMSO to yield a final dose response concentration range of 0.05 nM-50 μM. After a 30 minute compound pre-treatment at room temperature, the cells are then stimulated with a TLR7 ligand (gardiquimod at a final concentration of 7.5 μM), TLR8 ligand (R848 at a final concentration of 15.9 μM) or TLR9 ligand (ODN2006 at a final concentration of 5 nM) to activate NF-κB and AP-1 which induce the production of SEAP. After a 22 hour incubation at 37° C., 5% CO2, SEAP levels are determined with the addition of HEK-Blue™ Detection reagent (Invivogen), a cell culture medium that allows for detection of SEAP, according to manufacturer's specifications.

Take `Cc1c(-c2[nH]c3ccc(C4CCC(N(C)CC(N)=O)CC4)nc3c2C(C)C)cn2ncnc2c1C` (stereo not drawn) [Example 398]: the IC50 was determined as 17 nM at human TLR8, 4120 nM on human TLR9 and 3.8 nM against human TLR7.

In the case of `CNC(=O)CN(C)C1CCC(c2ccc3[nH]c(-c4cn5ncnc5c(C)c4C)c(C(C)C)c3n2)CC1` (stereo not drawn) [Example 400], the IC50 was 2.9 nM on human TLR8, 1550 nM on human TLR9 and 0.74 nM against human TLR7.

`Cc1c(-c2[nH]c3ccc(C4CCC(N(C)C5COC5)CC4)nc3c2C(C)C)cn2ncnc2c1C` (stereo not drawn) [Example 401]: the IC50 at human TLR8 turned out to be 6.4 nM; at human TLR9, 5720 nM; against human TLR7, 5.7 nM.

`Cc1ncc(CN(C)C2CCC(c3ccc4[nH]c(-c5cn6ncnc6c(C)c5C)c(C(C)C)c4n3)CC2)cn1` (stereo not drawn) [Example 402]: the results for the IC50 on human TLR8, on human TLR9 and against human TLR7 were 43 nM, 5150 nM and 31 nM, respectively.

Consider `CNC(=O)CN(C)C1CCC(c2ccc3[nH]c(-c4cn5ncnc5c(C)c4C)c(C(C)C)c3n2)CC1` (stereo not drawn) [Example 403], for which the IC50 was 44 nM on human TLR8, 4280 nM at human TLR9 and 7.7 nM on human TLR7.

For `Cc1c(-c2[nH]c3ccc(C4CCC(N(C)C(=O)CN(C)C)CC4)nc3c2C(C)C)cn2ncnc2c1C` (stereo not drawn) [Example 404], the IC50 at human TLR8 was 9.3 nM; at human TLR9, 1540 nM; against human TLR7 it was 3.8 nM.

As for `COc1ncc(CN(C)C2CCC(c3ccc4[nH]c(-c5cn6ncnc6c(C)c5C)c(C(C)C)c4n3)CC2)cn1` (stereo not drawn) [Example 405], the IC50 at human TLR8 stood at 2.5 nM; on human TLR9 it was 1420 nM; against human TLR7, 3.6 nM.

In the case of `Cc1c(-c2[nH]c3ccc(C4CCC(N(C)CC(N)=O)CC4)nc3c2C(C)C)cn2ncnc2c1C` (stereo not drawn) [Example 406], the figures for the IC50 at human TLR8, at human TLR9 and at human TLR7 were 3 nM, 1470 nM and 1.4 nM, respectively.

Turning to `Cc1c(-c2[nH]c3ccc(C4CCC(N5CCCC5)CC4)nc3c2C(C)C)cn2ncnc2c1C` (stereo not drawn) [Example 407], the IC50 on human TLR8 was 8.5 nM; on human TLR9, 2460 nM; against human TLR7 it was 7.2 nM.

For `Cc1c(-c2[nH]c3ccc(C4CCC(N(C)CC(=O)N(C)C)CC4)nc3c2C(C)C)cn2ncnc2c1C` (stereo not drawn) [Example 408], the IC50 amounted to 43 nM at human TLR8, 6440 nM on human TLR9 and 18 nM against human TLR7.

On to `Cc1c(-c2[nH]c3ccc(C4CCC(NCCO)CC4)nc3c2C(C)C)cn2ncnc2c1C` (stereo not drawn) [Example 409], for which the values for the IC50 at human TLR8, at human TLR9 and against human TLR7 were 1.6 nM, 550 nM and 1.7 nM, respectively.

For `Cc1c(-c2[nH]c3ccc(C4CCC(N(C)CC(=O)N(C)C)CC4)nc3c2C(C)C)cn2ncnc2c1C` (stereo not drawn) [Example 410], the IC50 turned out to be 6.5 nM on human TLR8, 4920 nM at human TLR9 and 5 nM on human TLR7.

As for `CCN(CC)C1CCC(c2ccc3[nH]c(-c4cn5ncnc5c(C)c4C)c(C(C)C)c3n2)CC1` (stereo not drawn) [Example 411], the results for the IC50 on human TLR8, on human TLR9 and at human TLR7 were 8 nM, 2300 nM and 6.3 nM, respectively.

On to `Cc1c(-c2[nH]c3ccc(C4CCC(NCc5c[nH]nn5)CC4)nc3c2C(C)C)cn2ncnc2c1C` (stereo not drawn) [Example 412], for which the IC50 at human TLR8 stood at 2.1 nM; on human TLR9, 727 nM; at human TLR7, 2.2 nM.

In the case of `Cc1c(-c2[nH]c3ccc(C4CCC(NCc5cnco5)CC4)nc3c2C(C)C)cn2ncnc2c1C` (stereo not drawn) [Example 413], the IC50 at human TLR8 stood at 18 nM; on human TLR9, 4740 nM; on human TLR7, […].

As for `Cc1cnc(CN(C)C2CCC(c3ccc4[nH]c(-c5cn6ncnc6c(C)c5C)c(C(C)C)c4n3)CC2)cn1` (stereo not drawn) [Example 414], the IC50 on human TLR8 was found to be 12 nM; on human TLR9 it was 1760 nM; against human TLR7 it was 5.1 nM.

Regarding `Cc1cnc(CN(C)C2CCC(c3ccc4[nH]c(-c5cn6ncnc6c(C)c5C)c(C(C)C)c4n3)CC2)cn1` (stereo not drawn) [Example 415], the IC50 at human TLR8 was 3.5 nM; on human TLR9 it was 1240 nM; against human TLR7, 2.5 nM.

In the case of `Cc1c(-c2[nH]c3ccc(C4CCC(NCc5cnco5)CC4)nc3c2C(C)C)cn2ncnc2c1C` (stereo not drawn) [Example 416], the IC50 at human TLR8 was 1.2 nM; at human TLR9, 1620 nM; against human TLR7, […].

On to `Cc1c(-c2[nH]c3ccc(C4CCC(NCC5(S(C)(=O)=O)CC5)CC4)nc3c2C(C)C)cn2ncnc2c1C` (stereo not drawn) [Example 419], for which the IC50 was found to be 2.5 nM at human TLR8, 1740 nM on human TLR9 and 4.1 nM on human TLR7.

On to `CNC(=O)CN(C)C1CCC(c2ccc3[nH]c(-c4cn5ncnc5c(C)c4C)c(C(C)C)c3n2)CC1` (stereo not drawn) [Example 420], for which the IC50 was determined as 2.8 nM on human TLR8, 3530 nM at human TLR9 and 1.2 nM on human TLR7.

For the compound `Cc1c(-c2[nH]c3ccc(C4CCC(NC5CC5)CC4)nc3c2C(C)C)cn2ncnc2c1C` (stereo not drawn) [Example 421], the IC50 on human TLR8 is 1.8 nM; on human TLR9, 2060 nM; against human TLR7, 1.6 nM.

With `CNC(=O)CN(C)C1CCC(c2ccc3[nH]c(-c4cn5ncnc5c(C)c4C)c(C(C)C)c3n2)CC1` (stereo not drawn) [Example 422], the figures for the IC50 at human TLR8, on human TLR9 and at human TLR7 were 35 nM, 6240 nM and 15 nM, respectively.

Regarding `Cc1c(-c2[nH]c3ccc(C4CCC(NCCS(=O)(=O)C(F)(F)F)CC4)nc3c2C(C)C)cn2ncnc2c1C` (stereo not drawn) [Example 423], the IC50 is 83 nM on human TLR8, over 50000 nM on human TLR9 and 175 nM on human TLR7.

Take `Cc1c(-c2[nH]c3ccc(C4CCC(N(C)CCS(C)(=O)=O)CC4)nc3c2C(C)C)cn2ncnc2c1C` (stereo not drawn) [Example 425]: the results for the IC50 at human TLR8, on human TLR9 and on human TLR7 were 0.5 nM, 2920 nM and 0.87 nM, respectively.

For the compound `Cc1c(-c2[nH]c3ccc(C4CCC(NC5CC5)CC4)nc3c2C(C)C)cn2ncnc2c1C` (stereo not drawn) [Example 426], the results for the IC50 on human TLR8, on human TLR9 and against human TLR7 were 2.6 nM, 1400 nM and 2.5 nM, respectively.

Regarding `Cc1c(-c2[nH]c3ccc(C4CCC(N(C)CCS(C)(=O)=O)CC4)nc3c2C(C)C)cn2ncnc2c1C` (stereo not drawn) [Example 427], the figures for the IC50 at human TLR8, on human TLR9 and against human TLR7 were 7.6 nM, 4900 nM and 2.4 nM, respectively.

Regarding `Cc1c(-c2[nH]c3ccc(C4CCC(N(CCC#N)C5CC5)CC4)nc3c2C(C)C)cn2ncnc2c1C` (stereo not drawn) [Example 428], the results for the IC50 on human TLR8, on human TLR9 and at human TLR7 were 6.4 nM, 9860 nM and 7.4 nM, respectively.

`COCCNC1CCC(c2ccc3[nH]c(-c4cn5ncnc5c(C)c4C)c(C(C)C)c3n2)CC1` (stereo not drawn) [Example 429]: the IC50 on human TLR8 is 5.2 nM; at human TLR9, 7000 nM; at human TLR7, 3.4 nM.

Regarding `COCCNC1CCC(c2ccc3[nH]c(-c4cn5ncnc5c(C)c4C)c(C(C)C)c3n2)CC1` (stereo not drawn) [Example 431], the IC50 on human TLR8 is 11 nM; on human TLR9, 4660 nM; against human TLR7, 16 nM.

On to `Cc1c(-c2[nH]c3ccc(C4CCC(NCCC#N)CC4)nc3c2C(C)C)cn2ncnc2c1C` (stereo not drawn) [Example 432], for which the IC50 on human TLR8 is 0.55 nM; at human TLR9, 584 nM; against human TLR7, 0.37 nM.

`Cc1c(-c2[nH]c3ccc(C4CCC(N(CCC#N)C5CC5)CC4)nc3c2C(C)C)cn2ncnc2c1C` (stereo not drawn) [Example 433]: the IC50 on human TLR8 is 60 nM; at human TLR9, over 50000 nM; against human TLR7, 42 nM.

Consider `Cc1c(-c2[nH]c3ccc(C4CCC(N5CC(C#N)C5)CC4)nc3c2C(C)C)cn2ncnc2c1C` (stereo not drawn) [Example 434], for which the IC50 came out at 2.4 nM at human TLR8, 7430 nM at human TLR9 and 1.5 nM on human TLR7.

For `CC(=O)N(C)C1CCC(c2ccc3[nH]c(-c4cn5ncnc5c(C)c4C)c(C(C)C)c3n2)CC1` (stereo not drawn) [Example 439], the IC50 is 32 nM on human TLR8, 24200 nM at human TLR9 and 3.5 nM against human TLR7.

Consider `CC(=O)N(C)C1CCC(c2ccc3[nH]c(-c4cn5ncnc5c(C)c4C)c(C(C)C)c3n2)CC1` (stereo not drawn) [Example 440], for which the IC50 is 14 nM at human TLR8, over 50000 nM on human TLR9 and 6.4 nM on human TLR7.

On to `Cc1c(-c2[nH]c3ccc(C4CCC(N(CC#N)C5COC5)CC4)nc3c2C(C)C)cn2ncnc2c1C` (stereo not drawn) [Example 441], for which the IC50 was determined as 0.63 nM on human TLR8, 1660 nM on human TLR9 and 0.79 nM against human TLR7.

Regarding `Cc1c(-c2[nH]c3ccc(C4CCC(N5CCN(C)C(=O)C5)CC4)nc3c2C(C)C)cn2ncnc2c1C` (stereo not drawn) [Example 442], the half-inhibitory concentration (IC50) on human TLR8 worked out at 3.5 nM; at human TLR9, 18300 nM; on human TLR7, 3.7 nM.

With `Cc1c(-c2[nH]c3ccc(C4CCC(N(CCO)C5COC5)CC4)nc3c2C(C)C)cn2ncnc2c1C` (stereo not drawn) [Example 444], the IC50 at human TLR8 was 5.2 nM; at human TLR9, 39200 nM; against human TLR7, 16 nM.

Consider `Cc1c(-c2[nH]c3ccc(C4CCC(N5CC(S(C)(=O)=O)C5)CC4)nc3c2C(C)C)cn2ncnc2c1C` (stereo not drawn) [Example 445], for which the IC50 on human TLR8 was determined as 3.6 nM; on human TLR9, 4890 nM; against human TLR7, 1.5 nM.

Regarding `Cc1c(-c2[nH]c3ccc(C4CCC(NCCS(N)(=O)=O)CC4)nc3c2C(C)C)cn2ncnc2c1C` (stereo not drawn) [Example 446], the IC50 on human TLR8 came to 0.91 nM; at human TLR9, 364 nM; against human TLR7, 0.91 nM.

For `Cc1c(-c2[nH]c3ccc(C4CCC(NCCS(N)(=O)=O)CC4)nc3c2C(C)C)cn2ncnc2c1C` (stereo not drawn) [Example 447], the IC50 is 2.3 nM at human TLR8, 1640 nM on human TLR9 and 1.7 nM against human TLR7.

Consider `Cc1c(-c2[nH]c3ccc(C4CCC(N5CC(S(C)(=O)=O)C5)CC4)nc3c2C(C)C)cn2ncnc2c1C` (stereo not drawn) [Example 448], for which the IC50 on human TLR8 is 24 nM; on human TLR9, 7690 nM; at human TLR7, 7.5 nM.

`CNC(=O)CN(C1CCC(c2ccc3[nH]c(-c4cn5ncnc5c(C)c4C)c(C(C)C)c3n2)CC1)C1COC1` (stereo not drawn) [Example 449]: the IC50 is 165 nM at human TLR8, 18000 nM on human TLR9 and 323 nM against human TLR7.
